Laboratory results published in article PMC8398878, “Synthesis, Physicochemical Characterization, In Vitro 2D/3D Human Cell Culture, and In Vitro Aerosol Dispersion Performance of Advanced Spray Dried and Co-Spray Dried Angiotensin (1—7) Peptide and PNA5 with Trehalose as Microparticles/Nanoparticles for Targeted Respiratory Delivery as Dry Powder …” (Pharmaceutics, 2021).
≈ marks a conversion by molar mass, not a printed value. Where two headings read alike, the source gives them in different places. One block for each compound: values may come before it. Peptide text beside a SMILES is read from it. * marks the point of attachment. βGlc = OC[C@H]1O[C@@H](*)[C@H](O)[C@@H](O)[C@@H]1O

Assays:
[1] = test system: A549 lung epithelial cells; assay: In vitro 2D cell viability, resazurin assay; conditions: for safe (non-toxic) concentration: epithelium lung cells (A549)
[2] = test system: hCMEC/D3 blood–brain barrier endothelial cells; assay: In vitro 2D cell viability, resazurin assay; conditions: for safe (non-toxic) concentration: endothelial brain cells (hCMEC/D3)
Procedure: In vitro human cell viability assays were performed to measure the biocompatibility and safety of Ang (1—7) and PNA5 on nasal epithelium RPMI 2650 cells, hCMEC/D3 blood–brain barrier endothelial cells, NHA, A549, and H441 lung cells using resazurin as a marker.
The immortalized human cerebral microvascular endothelial (hCMEC/D3) at passages 29 and 31 were seeded on collagen-coated culture flasks. Cells were grown in EndoGRO™-MV Complete Media Kit (cat. no. SCME004) supplemented with one ng/mL FGF-2 (cat. no. GF003) and kept in a humidified incubator at 37 °C and 5% CO2.
For passage, all the cell types were detached when confluence reached about 80% by treating the cells with trypsin-EDTA at 37 °C. The effects of Ang (1—7) and PNA5 on cell proliferation were analyzed by measuring all of the above cell line responses to different concentrations of Ang (1—7) and PNA5 separately. The cells were seeded in 96-well black plates at a specific density and were kept to attach for 48 h. Then, the media containing compounds were removed from each well and replaced by 100 μL of media containing 20 μM resazurin sodium salt (was dissolved in un-supplemental media) and incubated for 4 h at 37 °C and 5% CO2. The fluorescence intensity of the metabolite (resorufin) produced by the viable cells was measured at 544 nm (the excitation) and 590 nm (the emission) using the Synergy H1 Multi-Mode Reader (BioTek Instruments Inc., Winooski, VT, USA). The relative cell viability of the cell line was calculated using Equation (6):(6) Relative viability %=Sample fluorescence intensity/Control fluorescence intensity×100%

[3] = test system: Normal Human Astrocytes (NHA); assay: In vitro 2D cell viability, resazurin assay; conditions: for safe (non-toxic) concentration: astrocyte brain cells (NHA)
[4] = test system: RPMI 2650 nasal epithelium cells; assay: In vitro 2D cell viability, resazurin assay; conditions: for safe (non-toxic) concentration: nasal epithelium cells (RPMI2650)
[5] = Solubility by shake-flask method (SFM) with HPLC; assay type: physicochemical
Procedure: The solubilities of Ang (1—7) and PNA5 were determined by the SFM using conditions similar to previously reported by our group and in [39, 40, 41, 42]. Each compound’s excess powder was added to a specific volume of different solvents (purified water, phosphate buffered saline (PBS), normal saline (NS), methanol, and ethanol) in closed, light-protected glass vials. The solutions containing excess solid of Ang (1—7) and PNA5 were then capped and agitated at room temperature (25 °C) using a shaker. More powder was added to the vial if the dissolution was complete. The pH value of Ang (1—7) and PNA5 suspensions were adjusted to pH 6.5 (pseudo-isoelectric point calculated by MOE software) to determine the zwitterionic species’ solubilities and ensure the predominant presence of the unionized form of Ang (1—7) and PNA5. The separation of the saturated solution and the precipitate was performed by sedimentation. Aliquots of supernatants were withdrawn from all saturated solutions, diluted with each corresponding solvent, and injected into analytical HPLC. Each compound in each aliquot was measured against a calibration curve using the previously developed analytical HPLC method in our lab. Each compound’s solubility experiments in all solvents were repeated three times (n = 3, mean ± standard deviation).
The HPLC system is LC-2010HT next-generation HPLC (SHIMADZU Tokyo, Japan), and it is the same as previously used in [24]. This system consists of a degassing unit, low-pressure gradient unit, pump unit, mixer, ultra-fast autosampler, column oven, and a UV-VIS detector with a thermostatted flow cell system. The analysis was performed by a reverse phase HPLC assay, using Phenomenex Prodigy 5 um ODS (3) 250 × 4.6 mm HPLC Column. Ultraviolet detection was done at 280 nm. Mobile phase condition was a gradient of acetonitrile in water with 0.1% trifluoroacetic acid at two different percentages pumped from two pumps. The flow was 1 mL/min, the injection volume was 20 μL; the retention time for Ang (1—7) was ~7.7 min and for PNA5 was ~6.7 min. Quantification for both compounds was determined using peak area and calculated from freshly prepared standard curves.

[6] = test system: H441 lung epithelial cells; assay: In vitro 2D cell viability, resazurin assay; conditions: for safe (non-toxic) concentration: epithelium lung cells (H441)
[7] = Karl Fisher coulometric titration, residual water content; assay type: physicochemical; conditions: n = 3
Procedure: All powders’ residual water content was quantified by KFT coulometrically using conditions similar to previously reported. A TitroLine® 7500 trace titrator (SI Analytics, Mainz, Germany) was used. A mass of 1–2 mg of powder sample was dissolved in 0.5 mL AQUA STAR anhydrous methanol and injected the sample solution into a reaction cell filled with Hydranal® Coulomat AD reagent. Then obtain the water content of the sample a simple calculation. All experiments were done in triplicate (n = 3).

Solubility Category According to USP Definition ([5]; Ethanol): Very slightly soluble (VSS)
solubility ([5]; Ethanol, 25 °C, n = 3, read-out: Solubility): 0.16 ± 0.001 mg/mL
solubility ([5]; Ethanol, footnote: S in mMole unit, read-out: LogS (experimental) (converted)): 0.178 mM
solubility ([5]; H2O, footnote: S in mMole unit, read-out: LogS (experimental) (converted)): 195 mM
solubility ([5]; H2O, read-out: Solubility Category According to USP Definition): 100 to 1000 mg/mL
Solubility Category According to USP Definition ([5]; Methanol): Slightly soluble (SS)
solubility ([5]; Methanol, 25 °C, n = 3, read-out: Solubility): 1 ± 0.005 mg/mL
solubility ([5]; Methanol, footnote: S in mMole unit, read-out: LogS (experimental) (converted)): 1.12 mM
solubility ([5]; NS, footnote: S in mMole unit, read-out: LogS (experimental) (converted)): 155 mM
solubility ([5]; NS, read-out: Solubility Category According to USP Definition): 100 to 1000 mg/mL
Solubility Category According to USP Definition ([5]; PBS): Freely Soluble (FS)
solubility ([5]; PBS, footnote: S in mMole unit, read-out: LogS (experimental) (converted)): 186 mM
solubility ([5]; pH 6.5, H2O, pH 6.5, 25 °C, n = 3, read-out: Solubility): 174 ± 0.19 mg/mL
solubility ([5]; pH 6.5, NS (normal saline), pH 6.5, 25 °C, n = 3, read-out: Solubility): 140.4 ± 0.32 mg/mL
solubility ([5]; pH 6.5, PBS, pH 6.5, 25 °C, n = 3, read-out: Solubility): 165.4 ± 0.34 mg/mL
SMILES: CC[C@H](C)[C@H](NC(=O)[C@H](Cc1ccc(O)cc1)NC(=O)[C@@H](NC(=O)[C@H](CCCNC(=N)N)NC(=O)[C@@H](N)CC(=O)O)C(C)C)C(=O)N[C@@H](Cc1c[nH]cn1)C(=O)N1CCC[C@H]1C(=O)O [Ang (1—7), Asp-Arg-Val-Tyr-Ile-His-Pro]
safe (non-toxic) concentration [1]: up to 1000 μg/mL
safe (non-toxic) concentration [2]: up to 1000 μg/mL
safe (non-toxic) concentration [3]: up to 1000 μg/mL
safe (non-toxic) concentration [4]: up to 1000 μg/mL
safe (non-toxic) concentration [6]: up to 1000 μg/mL

SMILES: CC[C@H](C)[C@H](NC(=O)[C@H](Cc1ccc(O)cc1)NC(=O)[C@@H](NC(=O)[C@H](CCCNC(=N)N)NC(=O)[C@@H](N)CC(=O)O)C(C)C)C(=O)N[C@@H](Cc1c[nH]cn1)C(=O)N[C@@H](CO[C@@H]1O[C@H](CO)[C@@H](O)[C@H](O)[C@H]1O)C(N)=O [PNA5, Asp-Arg-Val-Tyr-Ile-His-Ser-(O-β-D-Glc)-amide] (H-DRVYIHS(βGlc)-NH2)
relative cell viability% vs control cells ([1]; A549, 0.1, 1, 10 and 1000 µg/mL, p > 0.05, n = 6): no statistically significant difference
safe (non-toxic) concentration [1]: up to 1000 μg/mL
safe (non-toxic) concentration [2]: up to 1000 μg/mL
relative cell viability% vs control cells ([2]; hCMEC/D3, 0.1, 1, 10 and 1000 µg/mL, p > 0.05, n = 6): no statistically significant difference
relative cell viability% vs control cells ([3]; NHA, 0.1, 1, 10 and 1000 µg/mL, p > 0.05, n = 6): no statistically significant difference
safe (non-toxic) concentration [3]: up to 1000 μg/mL
relative cell viability% vs control cells ([4]; RPMI2650, 0.1, 1, 10 and 1000 µg/mL, p > 0.05, n = 6): no statistically significant difference
safe (non-toxic) concentration [4]: up to 1000 μg/mL
Solubility Category According to USP Definition ([5]; Ethanol): Very slightly soluble (VSS)
Solubility Category According to USP Definition ([5]; Methanol): Very slightly soluble (VSS)
solubility thermodynamic ([5]; NS (normal saline), pH 6.5, 25 °C, n = 3): 269.3 ± 1.53 mg/mL (≈ 256 mM)
solubility ([5]; ethanol, 25 °C, n = 3, read-out: Solubility): 0.12 ± 0.003 mg/mL
solubility ([5]; ethanol, footnote: S in mMole unit, read-out: LogS (experimental) (converted)): 0.115 mM
solubility ([5]; methanol, 25 °C, n = 3, read-out: Solubility): 0.34 ± 0.01 mg/mL
solubility ([5]; methanol, footnote: S in mMole unit, read-out: LogS (experimental) (converted)): 0.331 mM
solubility ([5]; normal saline (NS), pH 6.5, NS, footnote: S in mMole unit, read-out: LogS (experimental) (converted)): 257 mM
solubility ([5]; normal saline (NS), pH 6.5, NS, read-out: Solubility Category According to USP Definition): 100 to 1000 mg/mL
solubility ([5]; phosphate buffered saline (PBS), pH 6.5, PBS, footnote: S in mMole unit, read-out: LogS (experimental) (converted)): 288 mM
solubility ([5]; phosphate buffered saline (PBS), pH 6.5, PBS, read-out: Solubility Category According to USP Definition): 100 to 1000 mg/mL
solubility thermodynamic ([5]; phosphate buffered saline (PBS), PBS, pH 6.5, 25 °C, n = 3): 305.05 ± 0.22 mg/mL (≈ 290 mM)
solubility ([5]; purified water, pH 6.5, H2O, footnote: S in mMole unit, read-out: LogS (experimental) (converted)): 263 mM
solubility ([5]; purified water, pH 6.5, H2O, read-out: Solubility Category According to USP Definition): 100 to 1000 mg/mL
solubility thermodynamic ([5]; purified water, H2O, pH 6.5, 25 °C, n = 3): 275.3 ± 2.31 mg/mL (≈ 262 mM)
relative cell viability% vs control cells ([6]; H441, 0.1, 1, 10 and 1000 µg/mL, p > 0.05, n = 6): no statistically significant difference
safe (non-toxic) concentration [6]: up to 1000 μg/mL

Water % (w/w) [7]: 8.55 ± 1.50 % (w/w)
SMILES: OC[C@H]1O[C@H](O[C@H]2O[C@H](CO)[C@@H](O)[C@H](O)[C@H]2O)[C@H](O)[C@@H](O)[C@@H]1O [Raw Trehalose, D (+)-Trehalose dihydrate]
